{"source": "patent US20050032646A1", "about": "“Agents for the regulation of gametophytic self-incompatibility and a control method for the breakdown of gametophytic self-incompatibility using the agents” (priority 2002, published 2005)", "key": {"[1]": {"test_system": "style-specific S RNase of Fuji apple", "experiment": "Inhibition of the activity of a style-specific S RNase by the agents", "type": "biochemical", "settings": "optical density at 260 nm (A260), agent 2.0 mM, no treatment 1.10", "protocol": "Inhibition of S RNase activity by an agent of the present invention was measured as follows: The standard solution of 500 μL of 10 mM sodium phosphate (pH 7.0) with an agent (2.0 mM), and 500 μL of torula yeast rRNA (5 mg/mL) was pre-incubated for 10 min at 37° C. To the substrate solution, the 20 μL of the style-specific S RNase (200 ng) of Fuji apple was added, then the solution was incubated for 30 min at 37° C. A fraction of 200 μL was collected and 40 μL of stop buffer (ice-cold 25% HCIO4, 0.75% uranyl acetate) was added, then mixed and centrifuged at 12,000 rpm for 5 min. And 50 μL of the supernatant was diluted with 950 μL of dd H2O, then the solution was centrifuged and measured the optical density at 260 nm (A260) (Singh A. et al., Plant Physilolgy, 96: 61-68,1991)."}, "Hongro apple": {"test_system": "Hongro apple", "experiment": "Breakdown of the self-incompatibility in Hongro apple (self-pollination rate, field)", "type": "in vivo", "settings": "25 days after the treatment", "protocol": "In the field application experiment, Hongro apple (the Rosaceae) which has a very low self-pollination rate (<5%) was isolated single-genetically by covering up whole plants with a fine-meshed net to exclude any pollinating insects. The agent of the present invention was treated enough to get-wet flowers at various concentrations with a micro-spray at 9:00-11:00 AM. The target of the agent was the first-blooming primary apple flower. The self-pollination rate was investigated 25 days after the treatment and compared with no treatment and artificial cross-pollination."}, "Hongro apple flowers": {"test_system": "Hongro apple flowers", "experiment": "Side-effect of the agents toward Hongro apple flowers", "type": "in vivo", "design": "key: 0: no side-effect is observed, and it is same as no treatment of the agents; 1: the side-effect are observed in flowers, but they recover to normal fruition in a week; 2: a fall-out of flowers and 10% decrease in fruition rate; 3: about 40% loss; 4: 60% loss; 5: a severe loss in fruition", "protocol": "To investigate the side-effect of the agent, various concentrations of the agents were treated to the flowers of Hongro apple."}, "20-Century pear": {"test_system": "20-Century pear", "experiment": "Breakdown of the self-incompatibility in 20-century pear (fertilization rate, field)", "type": "in vivo", "settings": "600 μM, sprayed 5 and 2 days before full bloom, 14 days after the treatment", "protocol": "In a field test, 20-Century pear (the Rosaceae) which has self-incompatibility system was isolated single-genetically by covering up selected branches or whole plants with a fine-meshed net to exclude any pollinating insects. The aqueous of 600 μM solution of an agent of the present invention was treated enough to get-wet flowers with a micro-spray at 9:00-11:00 AM. The agent solution was micro-sprayed 2 times; first at 5 days before full bloom and second at 2 days before full bloom. The reference was artificial cross-pollination at full bloom. The fertilization rate was investigated 14 days after the treatment and compared with no treatment and artificial cross-pollination."}, "Safinia purple": {"test_system": "Safinia purple", "experiment": "Breakdown of self-incompatibility and seed production of Safinia purple", "type": "in vivo, Safinia purple (petunia)", "protocol": "To establish the application method of the SI suppressing agent for the seed production, a field experiment was performed with Safinia purple ( the Solanaceae, a petunia developed by Suntory Ltd).\nTo a 15 cm-radii round pot, were added fine soil (pH 5.6) and 2 gr of complex fertilizer (including N, P, K 8% each) and they were mixed well. Safinia purple of 10 cm height were planted and raised in a green house for 2 weeks. At the period of 30 % bloom the diluted aqueous solutions of Zn(II) propionate or Cu(II) propionate agent were micro-sprayed enough to wet a flower and a style(3 ml). Two days after treatment of the agent, self-pollen was pollinated to its own style and the seed production was investigated. The experiments were repeated twice."}}}
{"smiles": "CCC(=O)[O-].CCC(=O)[O-].[Zn+2]", "note": "[Zn(II) Propionate]", "values": [{"measurement": "OD (2.0 mM)", "setting": "[1]", "value": 0.69}, {"measurement": "self-pollination rate", "setting": "Hongro apple; concentration 0.01 mM", "value": ">10", "unit": "%"}, {"measurement": "self-pollination rate", "setting": "Hongro apple; concentration 0.03 mM", "value": ">30", "unit": "%"}, {"measurement": "self-pollination rate", "setting": "Hongro apple; concentration 0.10 mM", "value": ">50", "unit": "%"}, {"measurement": "self-pollination rate", "setting": "Hongro apple; concentration 0.30 mM", "value": ">50", "unit": "%"}, {"measurement": "self-pollination rate", "setting": "Hongro apple; concentration 1.0 mM", "value": ">50", "unit": "%"}, {"measurement": "side-effect index", "setting": "Hongro apple flowers; 1.0 mM", "value": 0}, {"measurement": "side-effect index", "setting": "Hongro apple flowers; 5.0 mM", "value": 0}, {"measurement": "side-effect index", "setting": "Hongro apple flowers; 20.0 mM", "value": 1}, {"measurement": "fertilization rate", "setting": "20-Century pear", "value": 45, "unit": "%"}, {"measurement": "seed production relative (%) to control", "setting": "Safinia purple; concn 10 μM", "value": 514.3, "unit": "%"}, {"measurement": "self-pollination pollination ratio (%)", "setting": "Safinia purple; concn 10 μM", "value": 29.4, "unit": "%"}, {"measurement": "self-pollination relative (%) to control", "setting": "Safinia purple; concn 10 μM", "value": 1000, "unit": "%"}, {"measurement": "seed production relative (%) to control", "setting": "Safinia purple; concn 30 μM", "value": 442.9, "unit": "%"}, {"measurement": "self-pollination pollination ratio (%)", "setting": "Safinia purple; concn 30 μM", "value": 42.4, "unit": "%"}, {"measurement": "self-pollination relative (%) to control", "setting": "Safinia purple; concn 30 μM", "value": 1400, "unit": "%"}, {"measurement": "seed production relative (%) to control", "setting": "Safinia purple; concn 100 μM", "value": 1057.1, "unit": "%"}, {"measurement": "self-pollination pollination ratio (%)", "setting": "Safinia purple; concn 100 μM", "value": 47.1, "unit": "%"}, {"measurement": "self-pollination relative (%) to control", "setting": "Safinia purple; concn 100 μM", "value": 1600, "unit": "%"}, {"measurement": "seed production relative (%) to control", "setting": "Safinia purple; concn 300 μM", "value": 1128.6, "unit": "%"}, {"measurement": "self-pollination pollination ratio (%)", "setting": "Safinia purple; concn 300 μM", "value": 63.6, "unit": "%"}, {"measurement": "self-pollination relative (%) to control", "setting": "Safinia purple; concn 300 μM", "value": 2100, "unit": "%"}, {"measurement": "seed production relative (%) to control", "setting": "Safinia purple; concn 1000 μM", "value": 1628.6, "unit": "%"}, {"measurement": "self-pollination pollination ratio (%)", "setting": "Safinia purple; concn 1000 μM", "value": 64.5, "unit": "%"}, {"measurement": "self-pollination relative (%) to control", "setting": "Safinia purple; concn 1000 μM", "value": 2000, "unit": "%"}]}
